From ChEMBL document CHEMBL1821685 (Eur J Med Chem, 2011)
In brackets after ≈: the same amount, converted by molar mass.

Experiment: Solubility of the compound in HEPES buffer
Type: physicochemical

Structure (SMILES) | solubility
NNC(=O)c1cnc2c(=O)[nH]c(N)nc2n1 | 500 µM (≈ 111 µg/mL)
CC(=O)c1cnc2c(=O)[nH]c(N)nc2n1 | 500 µM (≈ 103 µg/mL)
